Measured values published in patent US10676465B2, “GLP-1 receptor agonists and uses thereof” (Pfizer Inc., priority 2018, dated 2020).
Read-outs that look alike come from different tables or passages of the source.

Legend:
[1] = target: human GLP-1R (Homo sapiens, UniProt P43220, G168S); assay: CHO GLP-1R Clone H6 - Assay 1 (HTRF cAMP agonist assay); format: cell-based; details: for EC50: CHO GLP-1R Clone H6, cAMP HTRF, geometric mean; for Emax: CHO GLP-1R Clone H6, arithmetic mean, relative to saturating GLP-1 (1 μM)
Sequence of human GLP-1R (Homo sapiens, UniProt P43220, G168S) (P43220 24-463 G168S limits assumed): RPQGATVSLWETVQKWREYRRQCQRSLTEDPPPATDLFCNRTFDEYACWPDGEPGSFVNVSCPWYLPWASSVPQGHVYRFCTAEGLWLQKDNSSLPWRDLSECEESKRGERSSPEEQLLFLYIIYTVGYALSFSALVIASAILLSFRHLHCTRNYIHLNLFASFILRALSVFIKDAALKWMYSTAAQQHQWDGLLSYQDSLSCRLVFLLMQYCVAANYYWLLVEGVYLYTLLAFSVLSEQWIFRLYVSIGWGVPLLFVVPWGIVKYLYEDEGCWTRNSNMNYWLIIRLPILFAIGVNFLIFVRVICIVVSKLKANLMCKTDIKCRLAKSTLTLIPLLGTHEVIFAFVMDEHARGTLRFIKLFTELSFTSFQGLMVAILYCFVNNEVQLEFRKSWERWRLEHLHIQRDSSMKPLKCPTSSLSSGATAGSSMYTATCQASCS

[2] = target: human GLP-1R (Homo sapiens (Human), UniProt P43220, L260F); assay: CHO GLP-1R Clone C6 - Assay 2 (HTRF cAMP agonist assay, low receptor density); details: for Emax: read-out: Assay 2 Emax (%), CHO GLP-1R Clone C6 (low receptor density), arithmetic mean, relative to saturating GLP-1 (1 μM)
Sequence of human GLP-1R (Homo sapiens (Human), UniProt P43220, L260F) (P43220 24-463 L260F): as the sequence (P43220 24-463 G168S limits assumed) above, with S145G, L237F counted along it
Protocol: CHO GLP-1R Clone C6—Assay 2
GLP-1R-mediated agonist activity was determined with a cell-based functional assay utilizing an HTRF (Homogeneous Time-Resolved Fluorescence) cAMP detection kit (cAMP HI Range Assay Kit; Cis Bio cat #62AM6PEJ) that measures cAMP levels in the cell. The method is a competitive immunoassay between native cAMP produced by the cells and exogenous cAMP labeled with the dye d2. The tracer binding is visualized by a mAb anti-cAMP labeled with Cryptate. The specific signal (i.e. energy transfer) is inversely proportional to the concentration of cAMP in either a standard or an experimental sample.
The human GLP-1R coding sequence (NCBI Reference Sequence NP_002053.3, including naturally-occurring variant Leu260Phe) was subcloned into pcDNA5-FRT-TO and a clonal CHO cell line stably expressing a low receptor density was isolated using the Flp-In™ T-Rex™ System, as described by the manufacturer (ThermoFisher).
Cells were removed from cryopreservation, re-suspended in 40 mL of Dulbecco's Phosphate Buffered Saline (DPBS—Lonza Cat #17-512Q) and centrifuged at 800×g for 5 minutes at 22° C. The DPBS was aspirated, and the cell pellet was re-suspended in 10 mL of complete growth medium (DMEM:F12 1:1 Mixture with HEPES, L-Gln, 500 mL (DMEM/F12 Lonza Cat #12-719F), 10% heat inactivated fetal bovine serum (Gibco Cat #16140-071), 5 mL of 100× Pen-Strep (Gibco Cat #15140-122), 5 mL of 100×L-Glutamine (Gibco Cat #25030-081), 700 μg/mL Hygromycin (Invitrogen Cat #10687010) and 15 μg/mL Blasticidin (Gibco Cat # R21001). A 1 mL sample of the cell suspension in growth media was counted on a Becton Dickinson ViCell to determine cell viability and cell count per mL. The remaining cell suspension was then adjusted with growth media to deliver 1600 viable cells per well using a Matrix Combi Multidrop reagent dispenser, and the cells were dispensed into a white 384 well tissue culture treated assay plate (Corning 3570). The assay plate was then incubated for 48 hours at 37° C. in a humidified environment (95% O2, 5% CO2)
Varying concentrations of each compound to be tested (in DMSO) were diluted in assay buffer [HBSS with Calcium/Magnesium (Lonza/BioWhittaker cat #10-527F)/0.1% BSA (Sigma Aldrich cat # A7409-1L)/20 mM HEPES (Lonza/BioWhittaker cat #17-737E)] containing 100 μM 3-isobutyl-1-methylxanthin (IBMX; Sigma cat #15879). The final DMSO concentration in the compound/assay buffer mixture is 1%.
After 48 hours, the growth media was removed from the assay plate wells, and the cells were treated with 20 μL of the serially diluted compound in assay buffer for 30 minutes at 37° C. in a humidified environment (95% O2, 5% CO2). Following the 30 minute incubation, 10 μL of labeled d2 cAMP and 10 μL of anti-cAMP antibody (both diluted 1:20 in cell lysis buffer; as described in the manufacturer's assay protocol) were added to each well of the assay plate. The plates were then incubated at room temperature and after 60 minutes, changes in the HTRF signal were read with an Envision 2104 multi-label plate reader using excitation of 330 nm and emissions of 615 and 665 nm. Raw data were converted to nM cAMP by interpolation from a cAMP standard curve (as described in the manufacturer's assay protocol) and the percent effect was determined relative to a saturating concentration of the full agonist GLP-1 (1 μM) included on each plate. EC50 determinations were made from agonist dose response curves analyzed with a curve fitting program using a 4-parameter logistic dose response equation.

[3] = read-out: Assay 2 EC50, CHO GLP-1R Clone C6 (low receptor density), cAMP HTRF, geometric mean
[4] = EC50 in Assay 2, CHO GLP-1R Clone C6, cAMP, geometric mean of replicates

| EC50 [1] | Emax [1] | EC50 [2, 3] | Emax [2] | EC50 [2, 4] | SMILES |
| --- | --- | --- | --- | --- | --- |
| 0.0022 µM | 94% | 0.082 µM | 95% |  | Cc1nccn1CCn1c(CN2CCC(c3cccc4c3OC(C)(c3ccc(Cl)cc3F)O4)CC2)nc2ccc(C(=O)O)cc21 (centres unmarked) [Example 62, 2-({4-[2-(4-chloro-2-fluorophenyl)-2-methyl-1,3-benzodioxol-4-yl]piperidin-1-yl}methyl)-1-[2-(2-methyl-1H-imidazol-1-yl)ethyl]-1H-benzimidazole-6-carboxylic acid] |
| 0.0014 µM | 82% | 0.049 µM | 110% |  | COCCn1c(CN2CCC(c3cccc4c3OC(C)(c3ccc(Cl)cc3F)O4)CC2)nc2ccc(C(=O)O)cc21 (centres unmarked) [Example 24, 2-({4-[2-(4-chloro-2-fluorophenyl)-2-methyl-1,3-benzodioxol-4-yl]piperidin-1-yl}methyl)-1-(2-methoxyethyl)-1H-benzimidazole-6-carboxylic acid] |
| > 20 µM |  |  |  |  | COCCn1c(CN2CCN(c3cccc4c3OC(c3ccccc3)O4)CC2)nc2ccc(C(=O)O)cc21 (centres unmarked) [Example 22, 1-(2-methoxyethyl)-2-{[4-(2-phenyl-1,3-benzodioxol-4-yl)piperazin-1-yl]methyl}-1H-benzimidazole-6-carboxylic acid] |
| 0.0078 µM | 98% | 0.11 µM | 88% |  | COCCn1c(CN2CCC(c3cccc4c3OC(C)(c3ccc(C#N)cc3)O4)CC2)nc2ccc(C(=O)O)cc21 (centres unmarked) [Example 34, 2-({4-[2-(4-cyanophenyl)-2-methyl-1,3-benzodioxol-4-yl]piperidin-1-yl}methyl)-1-(2-methoxyethyl)-1H-benzimidazole-6-carboxylic acid] |
| 0.051 µM | 82% | 0.85 µM | 74% |  | CN(C)C(=O)Cn1c(CN2CCC(c3cccc4c3OC(C)(c3ccc(Cl)cc3F)O4)CC2)nc2ccc(C(=O)O)cc21 (centres unmarked) [Example 66, 2-({4-[2-(4-chloro-2-fluorophenyl)-2-methyl-1,3-benzodioxol-4-yl]piperidin-1-yl}methyl)-1-[2-(dimethylamino)-2-oxoethyl]-1H-benzimidazole-6-carboxylic acid] |
| > 20 µM |  |  |  |  | COCCn1c(CN2CCC(c3cccc4c3OC(C)(c3ccccn3)O4)CC2)nc2ccc(C(=O)O)cc21 (centres unmarked) [Example 90, 1-(2-methoxyethyl)-2-({4-[2-methyl-2-(pyridin-2-yl)-1,3-benzodioxol-4-yl]piperidin-1-yl}methyl)-1H-benzimidazole-6-carboxylic acid] |
| 0.074 µM | 85% | 0.68 µM | 53% |  | CN(C)C(=O)CCn1c(CN2CCC(c3cccc4c3OC(C)(c3ccc(Cl)cc3F)O4)CC2)nc2ccc(C(=O)O)cc21 (centres unmarked) [Example 59, 2-({4-[2-(4-chloro-2-fluorophenyl)-2-methyl-1,3-benzodioxol-4-yl]piperidin-1-yl}methyl)-1-[3-(dimethylamino)-3-oxopropyl]-1H-benzimidazole-6-carboxylic acid] |
| 0.045 µM | 86% | 1.1 µM | 77% |  | COCCn1c(CN2CCC(c3cccc4c3OC(C)(c3ccc(OC)c(F)c3)O4)CC2)nc2ccc(C(=O)O)cc21 (centres unmarked) [Example 30, 2-({4-[2-(3-fluoro-4-methoxyphenyl)-2-methyl-1,3-benzodioxol-4-yl]piperidin-1-yl}methyl)-1-(2-methoxyethyl)-1H-benzimidazole-6-carboxylic acid] |
| > 6.5 µM | 84% | > 20 µM |  |  | COCCn1c(CN2CCC(c3cccc4c3OC(C)(c3ccc(C#N)cn3)O4)CC2)nc2ccc(C(=O)O)cc21 (centres unmarked) [Example 93, ammonium 2-({4-[2-(5-cyanopyridin-2-yl)-2-methyl-1,3-benzodioxol-4-yl]piperidin-1-yl}methyl)-1-(2-methoxyethyl)-1H-benzimidazole-6-carboxylate] |
| 0.29 µM | 78% |  |  |  | COCCn1c(CN2CCC(c3cccc4c3OC(C)(c3cccnc3)O4)CC2)nc2ccc(C(=O)O)cc21 (centres unmarked) [Example 11, 1-(2-Methoxyethyl)-2-({4-[2-methyl-2-(pyridin-3-yl)-1,3-benzodioxol-4-yl]piperidin-1-yl}methyl)-1H-benzimidazole-6-carboxylic Acid] |
| 0.16 µM | 78% |  |  |  | CC1(c2ccc(Cl)cc2F)Oc2cccc(C3CCN(Cc4nc5ccc(C(=O)O)cc5n4CCN4CCOCC4)CC3)c2O1 (centres unmarked) [Example 44, 2-({4-[2-(4-chloro-2-fluorophenyl)-2-methyl-1,3-benzodioxol-4-yl]piperidin-1-yl}methyl)-1-[2-(morpholin-4-yl)ethyl]-1H-benzimidazole-6-carboxylic acid] |
| 0.76 µM | 85% |  |  |  | COCCn1c(CN2CCC(c3cccc4c3OC(C)(c3cccc(C)n3)O4)CC2)nc2ccc(C(=O)O)cc21 (centres unmarked) [Example 36, 1-(2-methoxyethyl)-2-({4-[2-methyl-2-(6-methylpyridin-2-yl)-1,3-benzodioxol-4-yl]piperidin-1-yl}methyl)-1H-benzimidazole-6-carboxylic acid] |
|  |  |  |  | 0.0043 µM | C[C@]1(c2ccc(Cl)cc2F)Oc2cccc(C3CCN(Cc4nc5ccc(C(=O)O)cc5n4C[C@@H]4CCO4)CC3)c2O1 [7, free acid, 2-({4-[(2S)-2-(4-Chloro-2-fluorophenyl)-2-methyl-1,3-benzodioxol-4-yl]piperidin-1-yl}methyl)-1-[(2S)-oxetan-2-ylmethyl]-1H-benzimidazole-6-carboxylic Acid] |
|  | 77% |  |  |  | CC1(c2ccc(Cl)cn2)Oc2cccc(C3CCN(Cc4nc5ccc(C(=O)O)cc5n4C[C@@H]4CCO4)CC3)c2O1 (stereo partly drawn) [Example 95, 2-({4-[2-(5-chloropyridin-2-yl)-2-methyl-1,3-benzodioxol-4-yl]piperidin-1-yl}methyl)-1-[(2S)-oxetan-2-ylmethyl]-1H-benzimidazole-6-carboxylic acid] |
| 0.2 µM | 83% |  |  |  | COCCn1c(CN2CCC(c3cccc4c3OC(C)(c3cccc(OC)c3)O4)CC2)nc2ccc(C(=O)O)cc21 (centres unmarked) [Example 39, 1-(2-methoxyethyl)-2-({4-[2-(3-methoxyphenyl)-2-methyl-1,3-benzodioxol-4-yl]piperidin-1-yl}methyl)-1H-benzimidazole-6-carboxylic acid] |
|  |  |  |  | 0.025 µM | O=C(O)c1ccc2nc(CN3CCC(c4cccc5c4O[C@@H](c4ccc(Cl)cc4F)O5)CC3)n(C[C@@H]3CCO3)c2c1 [5, free acid, 2-({4-[(2S)-2-(4-Chloro-2-fluorophenyl)-1,3-benzodioxol-4-yl]piperidin-1-yl}methyl)-1-[(2S)-oxetan-2-ylmethyl]-1H-benzimidazole-6-carboxylic Acid] |
| 0.57 µM | 89% |  |  |  | COCCn1c(CN2CCC(c3cccc4c3OC(C)(c3cccc(C#N)c3)O4)CC2)nc2ccc(C(=O)O)cc21 (centres unmarked) [Example 87, 2-({4-[2-(3-cyanophenyl)-2-methyl-1,3-benzodioxol-4-yl]piperidin-1-yl}methyl)-1-(2-methoxyethyl)-1H-benzimidazole-6-carboxylic acid] |
| 0.46 µM | 90% |  |  |  | CC1(c2ccc(Cl)cc2F)Oc2cccc(C3CCN(Cc4nc5ccc(C(=O)O)cc5n4CCc4ncc[nH]4)CC3)c2O1 (centres unmarked) [Example 74, 2-({4-[2-(4-chloro-2-fluorophenyl)-2-methyl-1,3-benzodioxol-4-yl]piperidin-1-yl}methyl)-1-[2-(1H-imidazol-2-yl)ethyl]-1H-benzimidazole-6-carboxylic acid] |
| 0.68 µM | 76% |  |  |  | COCCn1c(CN2CCN(c3cccc4c3OC(c3ccccc3)O4)CC2)nc2ccc(C(=O)O)cc21 (centres unmarked) [Example 23, 1-(2-methoxyethyl)-2-{[4-(2-phenyl-1,3-benzodioxol-4-yl)piperazin-1-yl]methyl}-1H-benzimidazole-6-carboxylic acid] |
|  |  | 0.0076 µM | 99% |  | C[C@]1(c2ccc(Cl)cc2F)Oc2cccc(C3CCN(Cc4nc5ccc(C(=O)O)c(F)c5n4C[C@@H]4CCO4)CC3)c2O1 [Example 100, 2-({4-[(2S)-2-(4-chloro-2-fluorophenyl)-2-methyl-1,3-benzodioxol-4-yl]piperidin-1-yl}methyl)-7-fluoro-1[(2S)-oxetan-2-ylmethyl]-1H-benzimidazole-6-carboxylic acid] |
| 0.6 µM | 86% |  |  |  | COCCn1c(CN2CCC(c3cccc4c3OC(CO)(c3ccccc3)O4)CC2)nc2ccc(C(=O)O)cc21 (centres unmarked) [Example 102, 2-({4-[2-(hydroxymethyl)-2-phenyl-1,3-benzodioxol-4-yl]piperidin-1-yl}methyl)-1-(2-methoxyethyl)-1H-benzimidazole-6-carboxylic acid] |
| 0.48 µM | 87% |  |  |  | COCCn1c(CN2CCC(c3cccc4c3OC(C)(c3cccc(C(F)(F)F)c3)O4)CC2)nc2ccc(C(=O)O)cc21 (centres unmarked) [Example 28, 1-(2-methoxyethyl)-2-[(4-{2-methyl-2-[3-(trifluoromethyl)phenyl]-1,3-benzodioxol-4-yl}piperidin-1-yl)methyl]-1H-benzimidazole-6-carboxylic acid] |
|  |  | 0.019 µM | 74% |  | O=C(O)c1ccc2nc(CN3CCC(c4cccc5c4O[C@@H](c4ccc(Cl)cc4F)O5)CC3)n(C[C@@H]3CCO3)c2c1F [Example 101, 2-({4-[(2S)-2-(4-chloro-2-fluorophenyl)-1,3-benzodioxol-4-yl]piperidin-1-yl}methyl)-7-fluoro-1-[(2S)-oxetan-2-ylmethyl]-1H-benzimidazole-6-carboxylic acid] |
| 0.23 µM | 80% |  |  |  | COCCn1c(CN2CCC(c3cccc4c3OC(C)(c3cccc(C)c3)O4)CC2)nc2ccc(C(=O)O)cc21 (centres unmarked) [Example 85, 1-(2-methoxyethyl)-2-({4-[2-methyl-2-(3-methylphenyl)-1,3-benzodioxol-4-yl]piperidin-1-yl}methyl)-1H-benzimidazole-6-carboxylic acid] |
